According to patent US9051310B2, “Nicotinamide derivative or salt thereof” (FUJIFILM Corporation, priority 2011, dated 2015):

Target: T1, glutathione S-transferase (GST)-linked full-length human Syk protein (Homo sapiens, UniProt P43405)
T1 construct: glutathione S-transferase (GST)-linked full-length human Syk protein; purchased Carna Biosciences; host or cells: Baculovirus expression system
Assay: Syk enzyme assay
Format: biochemical
Details: 0.83 nM Syk, time-resolved fluorescence; read-out: IC50 of Syk-inhibitory activity
Method: A glutathione S-transferase (GST)-linked full-length human Syk protein (Carna Biosciences), which had been generated using a Baculovirus expression system, was used in the Syk enzyme assay.
7.5 μl of a reaction solution (0.83 nM Syk, 20 mM HEPES, 10 mM MgCl2, 50 mM NaCl, 2 mM DTT, 0.05% BSA, pH 7.0) containing a Syk protein and a predetermined concentration of a test compound was shaken for 2 minutes, and it was then left at rest at room temperature for 13 minutes. Thereafter, 0.5 μM substrate peptide (Biotin-[…]-NH2) and 5 μL of a solution containing 67.5 μM ATP were added to the reaction solution, and the obtained mixture was then shaken for 2 minutes. The reaction solution was further left at rest at room temperature for 40 minutes, so as to carry out an enzyme reaction.
Thereafter, 50 μL of a reaction termination solution [60 nM APC-SA, 0.45 μg/mL Eu-PT66, 30 mM HEPES (pH 7.0), 150 mM KF, 30 mM EDTA, 0.15% BSA, 0.075% Tween20] containing Allophycocyanin-Streptavidin (APC-SA; PerkinElmer) and an Eu-W1024-labeled anti-phosphotyrosine PT66 antibody (Eu-PT66; PerkinElmer) was added to the reaction solution to terminate the enzyme reaction. At the same time, the reaction solution was left at rest at room temperature for 1 hour, so as to carry out an antigen-antibody reaction. Thereafter, using EnVision (PerkinElmer), the level of time-resolved fluorescence was measured at 615 nm and 665 nm, so that the phosphorylation of the substrate peptide was measured.
The following are used in Table 5 to denote standards for evaluating IC50 of Syk-inhibitory activity. • A: Up to 10 nM • B: 10 to 50 nM • C: 50 to 100 nM

| SMILES | IC50 [nM] |
| --- | --- |
| COc1nn(C)c2c(F)cc(Nc3nc(N[C@H](CC4CC4)[C@H](C)N)c(F)cc3C(N)=O)cc12 [Example 2-157, 6-(((2R,3S)-3-amino-1-cyclopropylbutan-2-yl)amino)-5-fluoro-2-((7-fluoro-3-methoxy-1-methyl-1H-indazol-5-yl)amino)nicotinamide] | < 10 |
| CC[C@H](N)[C@@H](CC)Nc1nc(Nc2cc(F)c3c(c2)c(OC)nn3C)c(C(N)=O)cc1F [Example 2-160, 6-(((3R,4S)-4-aminohexan-3-yl)amino)-5-fluoro-2-((7-fluoro-3-methoxy-1-methyl-1H-indazol-5-yl)amino)nicotinamide] | < 10 |
| COCCOc1ncc(Nc2nc(N[C@H](C3CC3)[C@H](C)N)c(F)cc2C(N)=O)cc1-n1nccn1 [Example 2-161, 6-(((1R,2S)-2-amino-1-cyclopropylpropyl)amino)-5-fluoro-2-((6-(2-methoxyethoxy)-5-(2H-1,2,3-triazol-2-yl)pyridin-3-yl)amino)nicotinamide] | 10 to 50 |
| CCOc1ncc(Nc2nc(N[C@H](C3CC3)[C@H](C)N)c(F)cc2C(N)=O)cc1-n1cccn1 [Example 2-164] | 10 to 50 |
| COCCOc1ncc(Nc2nc(N[C@H](C3CCC3)[C@H](C)N)c(F)cc2C(N)=O)cc1-n1nccn1 [Example 2-165, 6-(((1R,2S)-2-amino-1-cyclobutylpropyl)amino)-5-fluoro-2-((6-(2-methoxyethoxy)-5-(2H-1,2,3-triazol-2-yl)pyridin-3-yl)amino)nicotinamide] | 10 to 50 |
| CCOc1ncc(Nc2nc(N[C@H](C3CCC3)[C@H](C)N)c(F)cc2C(N)=O)cc1-n1ccnn1 [Example 2-167, 6-(((1R,2S)-2-amino-1-cyclobutylpropyl)amino)-2-((6-ethoxy-5-(1H-1,2,3-triazol-1-yl)pyridin-3-yl)amino)-5-fluoronicotinamide] | 10 to 50 |
| CCOc1ncc(Nc2nc(N[C@H](C3CCC3)[C@H](C)N)c(F)cc2C(N)=O)cc1-n1cccn1 [Example 2-168, 6-(((1R,2S)-2-amino-1-cyclobutylpropyl)amino)-2-((6-ethoxy-5-(1H-pyrazol-1-yl)pyridin-3-yl)amino)-5-fluoronicotinamide] | 10 to 50 |
| C[C@H](N)[C@H](Nc1nc(Nc2ccc3c(c2)c(OC(F)F)nn3C)c(C(N)=O)cc1F)C1CC1 [Example 2-171, 6-(((1R,2S)-2-amino-1-cyclopropylpropyl)amino)-2-((3-(difluoromethoxy)-1-methyl-1H-indazol-5-yl)amino)-5-fluoronicotinamide] | < 10 |
| CC[C@@H](Nc1nc(Nc2ccc3c(c2)c(OC(F)F)nn3CCOC)c(C(N)=O)cc1F)[C@H](C)N [Example 2-175, 6-(((2S,3R)-2-aminopentan-3-yl)amino)-2-((3-(difluoromethoxy)-1-(2-methoxyethyl)-1H-indazol-5-yl)amino)-5-fluoronicotinamide] | < 10 |
| COCCn1nc(OC(F)F)c2cc(Nc3nc(N[C@H](C4CC4)[C@H](C)N)c(F)cc3C(N)=O)ccc21 [Example 2-176, 6-(((1R,2S)-2-amino-1-cyclopropylpropyl)amino)-2-((3-(difluoromethoxy)-1-(2-methoxyethyl)-1H-indazol-5-yl)amino)-5-fluoronicotinamide] | < 10 |
| COCCn1nc(OC(F)F)c2cc(Nc3nc(N[C@H](CC(C)C)[C@H](C)N)c(F)cc3C(N)=O)ccc21 [Example 2-177, 6-(((2S,3R)-2-amino-5-methylhexan-3-yl)amino)-2-((3-(difluoromethoxy)-1-(2-methoxyethyl)-1H-indazol-5-yl)amino)-5-fluoronicotinamide] | < 10 |
| CCOC[C@@H](Nc1nc(Nc2cnc(C)c(-n3nccn3)c2)c(C(N)=O)cc1F)[C@H](C)N [Example 2-183, 6-(((2S,3S)-3-amino-1-ethoxybutan-2-yl)amino)-5-fluoro-2-((6-methyl-5-(2H-1,2,3-triazol-2-yl)pyridin-3-yl)amino)nicotinamide] | 50 to 100 |
| CCCC[C@@H](Nc1nc(Nc2cc(F)c3c(c2)c(N(C)C)nn3C)c(C(N)=O)cc1F)[C@H](C)N [Example 2-189, 6-(((2S,3R)-2-aminoheptan-3-yl)amino)-2-((3-(dimethylamino)-7-fluoro-1-methyl-1H-indazol-5-yl)amino)-5-fluoronicotinamide] | < 10 |
| CC(C)C[C@@H](Nc1nc(Nc2cc(F)c3c(c2)c(N(C)C)nn3C)c(C(N)=O)cc1F)[C@H](C)N [Example 2-190, 6-(((2S,3R)-2-amino-5-methylhexan-3-yl)amino)-2-((3-(dimethylamino)-7-fluoro-1-methyl-1H-indazol-5-yl)amino)-5-fluoronicotinamide] | < 10 |
| C[C@H](N)[C@@H](CC1CC1)Nc1nc(Nc2cc(F)c3c(c2)c(N(C)C)nn3C)c(C(N)=O)cc1F [Example 2-191, 6-(((2R,3S)-3-amino-1-cyclopropylbutan-2-yl)amino)-2-((3-(dimethylamino)-7-fluoro-1-methyl-1H-indazol-5-yl)amino)-5-fluoronicotinamide] | 10 to 50 |
| CC[C@H](N)[C@@H](CC)Nc1nc(Nc2cc(F)c3c(c2)c(N(C)C)nn3C)c(C(N)=O)cc1F [Example 2-195, 6-(((3R,4S)-4-aminohexan-3-yl)amino)-2-((3-(dimethylamino)-7-fluoro-1-methyl-1H-indazol-5-yl)amino)-5-fluoronicotinamide] | 10 to 50 |
| CCOc1ncc(Nc2nc(N[C@H](CC(C)C)[C@H](C)N)c(F)cc2C(N)=O)cc1-n1ccnn1 [Example 2-199, 6-(((2S,3R)-2-amino-5-methylhexan-3-yl)amino)-2-((6-ethoxy-5-(1H-1,2,3-triazol-1-yl)pyridin-3-yl)amino)-5-fluoronicotinamide] | < 10 |
| CCOc1ncc(Nc2nc(N[C@H](CC)[C@H](C)N)c(F)cc2C(N)=O)cc1-n1cccn1 [Example 2-200, 6-(((2S,3R)-2-aminopentan-3-yl)amino)-2-((6-ethoxy-5-(1H-pyrazol-1-yl)pyridin-3-yl)amino)-5-fluoronicotinamide] | 10 to 50 |
| CCC[C@@H](Nc1nc(Nc2cnc(OCC)c(-n3cccn3)c2)c(C(N)=O)cc1F)[C@H](C)N [Example 2-201, 6-(((2S,3R)-2-aminohexan-3-yl)amino)-2-((6-ethoxy-5-(1H-pyrazol-1-yl)pyridin-3-yl)amino)-5-fluoronicotinamide] | 10 to 50 |
| CC[C@@H](Nc1nc(Nc2cnc(OCCOC)c(-n3nccn3)c2)c(C(N)=O)cc1F)[C@H](C)N [Example 2-202, 6-(((2S,3R)-2-aminopentan-3-yl)amino)-5-fluoro-2-((6-(2-methoxyethoxy)-5-(2H-1,2,3-triazol-2-yl)pyridin-3-yl)amino)nicotinamide] | 50 to 100 |
| CCC[C@@H](Nc1nc(Nc2cnc(OCCOC)c(-n3nccn3)c2)c(C(N)=O)cc1F)[C@H](C)N [Example 2-203, 6-(((2S,3R)-2-aminohexan-3-yl)amino)-5-fluoro-2-((6-(2-methoxyethoxy)-5-(2H-1,2,3-triazol-2-yl)pyridin-3-yl)amino)nicotinamide] | 10 to 50 |
| CC[C@@H](Nc1nc(Nc2cnc(OC)c(-n3ccnn3)c2)c(C(N)=O)cc1F)[C@H](C)N [Example 2-204, 6-(((2S,3R)-2-aminopentan-3-yl)amino)-5-fluoro-2-((6-methoxy-5-(1H-1,2,3-triazol-1-yl)pyridin-3-yl)amino)nicotinamide] | 10 to 50 |
| CCOc1ncc(Nc2nc(N[C@H](CC)[C@H](C)N)c(F)cc2C(N)=O)cc1-n1ccnn1 [Example 2-206, 6-(((2S,3R)-2-aminopentan-3-yl)amino)-2-((6-ethoxy-5-(1H-1,2,3-triazol-1-yl)pyridin-3-yl)amino)-5-fluoronicotinamide] | 10 to 50 |
| CN(C)c1nn(C)c2ccc(Nc3nc(N[C@@H]4CCOC[C@@H]4N)c(F)cc3C(N)=O)cc12 [Example 2-212, 6-(((3R,4R)-3-aminotetrahydro-2H-pyran-4-yl)amino)-2-((3-(dimethylamino)-1-methyl-1H-indazol-5-yl)amino)-5-fluoronicotinamide] | < 10 |
| Cc1ncc(Nc2nc(N[C@H](C)[C@@H](N)C3CC3)c(F)cc2C(N)=O)cc1-n1nccn1 [Example 2-226, 6-(((1S,2R)-1-amino-1-cyclopropylpropan-2-yl)amino)-5-fluoro-2-((6-methyl-5-(2H-1,2,3-triazol-2-yl)pyridin-3-yl)amino)nicotinamide] | 50 to 100 |
| COCCOc1cc(Nc2nc(N[C@H](C)[C@@H](N)C3CC3)c(F)cc2C(N)=O)ccn1 [Example 2-228, 6-(((1S,2R)-1-amino-1-cyclopropylpropan-2-yl)amino)-5-fluoro-2-((2-(2-methoxyethoxy)pyridin-4-yl)amino)nicotinamide] | 50 to 100 |
| C[C@H](N)[C@H](Nc1nc(Nc2cc(N3CCOCC3)ncc2F)c(C(N)=O)cc1F)C1CC1 [Example 2-234, 6-(((1R,2S)-2-amino-1-cyclopropylpropyl)amino)-5-fluoro-2-((5-fluoro-2-morpholinopyridin-4-yl)amino)nicotinamide] | 50 to 100 |
